Test results published in US5607926A, “Cephalosporin antibiotics” (Microcide Pharmaceuticals, Inc., priority 1995, dated 1997).
Values after ≈ are worked out from the molar mass of the structure shown. Where a name gives a salt, the structure may show the parent alone. Read-outs that look alike come from different tables or passages of the source.

Tests used:
Type in all cases: cell-based
[1] = tested on: S. aureus ATCC 29213; assay: In vitro antibacterial evaluation, MIC by agar dilution, S. aureus ATCC 29213; settings: Staphylococcus aureus, ATCC29213
Procedure: (§1) The compounds of the invention were evaluated against several β-lactamresistant bacteria strains by determining the minimum inhibitory concentration (MIC, μg/ml) of each compound with respect to each strain. The MIC, the lowest concentration of antibiotic which inhibits growth of the test organism, was determined by the agar dilution method.
(§2) To determine the MIC for bacterial isolates, the test compound was incorporated in a series of two-fold dilutions into liquified Mueller-Hinton agar. Upon solidification, a number of different bacterial strains were spot inoculated with a replicating device onto the agar surface. […] The procedures used in these studies have been standardized by the National Committee for Clinical Laboratory Standards (NCCLS), as per the NCCLS publication entitled METHODS FOR DILUTION ANTIMICROBIAL SUSCEPTIBILITY TESTS (1991), which is incorporated herein by reference.
(§3) Aliquots of antimicrobial agents were prepared in phosphate buffered saline (PBS) at pH 7.2. Tween 20 or DMSO was used as a solubilizing vehicle as needed. Standard methods of vortexing, sonicating and gentle heat were used to facilitate solubilizing the test agent. Typically, the concentration of the stock solution was 10× that of the highest drug concentration tested. A 1.28 mg/mL stock solution was used with a subsequent highest working concentration of 128 μg/mL. Serial two-fold dilutions were done through ≤0.25 μg/mL. Each drug level was tested in duplicate. Two-fold drug dilutions were done in sterile 50 mL tubes with a final drug volume of 5 mL. Upon the addition of 45 mL of molten agar, a 10-fold dilution resulted. Two, 25 mL. plates were then poured into 15×150 mm square Petri plates with grids and allowed to harden.
(§4) A control plate with a reference drug, either cefotaxime, vancomycin or imipenem, was used as the positive growth control. Stock concentrations of reference antibiotics were prepared and frozen at -80° C. Upon preparation, the control plates were sealed and stored in the refrigerator for up to 1 week prior to use; however, imipenem control plates had to be prepared just prior to use. All test plates were used within 24 hours of preparation.
(§5) Satisfactory results were obtained where the inoculum contained about 10^4 colony forming units (cfu) ±0.5 logs. Starting with pure cultures of the test isolates on agar plates, a few isolated colonies were transferred to a tube of nutrient broth and allowed to grow 4-6 hours at 35°-36° C. to reach log-phase growth. Dropwise addition of the broth culture to PBS was done to match a 0.5 McFarland turbidity standard equal to 10^8 cfu/mL. This was further diluted ten-fold in PBS to reach a working inoculum concentration of 10^7 cfu/mL. When 1 μL of the working inoculum was applied to the agar surface a concentration of about 10^4 cfu per spot was obtained.
(§6) Disposable sterile 1 μL loops were used to inoculate test plates, with each isolate in a designated grid on the agar plate. An alternate method of inoculation involved the use of a replica plater, a device with 48 steel pins allowing the simultaneous inoculation of multiple isolates. After the spots had dried, the plates were incubated at 35°-36° C. for 16-20 hours. Endpoints were assessed as the minimum inhibitory concentration (MIC) of antimicrobial agent.

[2] = tested on: S. aureus 76 (Meth^R)(lac^+); assay: In vitro antibacterial evaluation, MIC by agar dilution, S. aureus 76; settings: Staphylococcus aureus, read-out: MIC
Procedure: as §1, §2, §3, §4, §5, §6

[3] = tested on: S. aureus Col8A (Meth^S)(lac^-); assay: In vitro antibacterial evaluation, MIC by agar dilution, S. aureus Col8A; settings: Staphylococcus aureus
Procedure: as §1, §2, §3, §4, §5, §6
The novel agents of this invention are notable for their enhanced activity against S. aureus Col and Enterococci (E. faecium and E. faecalis). The S. aureus Col strain is a high-level PBP2a producer, whereas S. aureus Col 8A, its isogenic partner, lacks PBP2a. […] Thus, the compounds of the present invention are effective against PBP2a-producing bacteria.

[4] = tested on: S. haemolyticus (Meth^R); assay: In vitro antibacterial evaluation, MIC by agar dilution, S. haemolyticus; settings: Staphylococcus haemolyticus, read-out: MIC
Procedure: as §1, §2, §3, §4, §5, §6

[5] = tested on: E. faecium ATCC 35667; assay: In vitro antibacterial evaluation, MIC by agar dilution, E. faecium ATCC 35667; settings: Enterococcus faecium, ATCC35667, read-out: MIC
Procedure: as §1, §2, §3, §4, §5, §6

[6] = tested on: E. faecalis ATCC 29212; assay: In vitro antibacterial evaluation, MIC by agar dilution, E. faecalis ATCC 29212; settings: Enterococcus faecalis, ATCC29212; E. faecalis ATCC 29212; read-out: MIC
Procedure: as §1, §2, §3, §4, §5, §6

[7] = tested on: E. coli ATCC 25922; assay: In vitro antibacterial evaluation, MIC by agar dilution, E. coli ATCC 25922; settings: Escherichia coli, ATCC25922, read-out: MIC
Procedure: as §1, §2, §3, §4, §5, §6

[8] = tested on: P. aeruginosa ATCC 27853; assay: In vitro antibacterial evaluation, MIC by agar dilution, P. aeruginosa ATCC 27853; settings: Pseudomonas aeruginosa, ATCC27853, read-out: MIC
Procedure: as §1, §2, §3, §4, §5, §6

[9] = S. aureus ATCC 29213, read-out: MIC

Row | SMILES | MIC [1, 9] | MIC [2] | MIC [3] | MIC [4] | MIC [5] | MIC [6] | MIC [7] | MIC [8] | MIC [1]
1 | N#Cc1ccccc1SC1=C(C(=O)O)N2C(=O)[C@@H](NC(=O)/C(=N\OC3CCCC3)c3csc(N)n3)[C@H]2SC1 [Cmpd 53, (7R)-7-[(Z)-2-(aminothiazol-4-yl)-2-(cyclopentyloxyimino)acetamido]-3-(2-cyanophenylthio)-3-cephem-4-carboxylic acid] | 1 µg/mL (≈ 1.75 µM) | 8 µg/mL (≈ 14 µM) | 1 µg/mL (≈ 1.75 µM) | 8 µg/mL (≈ 14 µM) | 8 µg/mL (≈ 14 µM) | 8 µg/mL (≈ 14 µM) | 1 µg/mL (≈ 1.75 µM) | 8 µg/mL (≈ 14 µM) | –
2 | CC(=O)NC(=N)SCc1ccccc1SC1=C(C(=O)O)N2C(=O)[C@@H](NC(=O)Cc3ccccc3)[C@H]2SC1 [Cmpd 78, (7R)-7-[(Phenylacetyl)amino]-3-(2-N-acetylamidinothiomethylphenylthio)-3-cephem-4-carboxylic acid] | – | 16 µg/mL (≈ 28.7 µM) | 0.25 µg/mL (≈ 0.449 µM) | > 32 µg/mL | 4 µg/mL (≈ 7.19 µM) | 4 µg/mL (≈ 7.19 µM) | > 32 µg/mL | > 32 µg/mL | 0.25 µg/mL (≈ 0.449 µM)
3 | N=C(NC1CC1)SCc1ccccc1SC1=C(C(=O)O)N2C(=O)[C@@H](NC(=O)Cc3ccccc3)[C@H]2SC1 [Cmpd 79, (7R)-7-[(Phenylacetyl)amino]-3-(2-N-cyclopropylisothiouroniummethylphenylthio)-3-cephem-4-carboxylate, inner salt] | 0.06 µg/mL | 8 µg/mL | 0.06 µg/mL | 32 µg/mL | 2 µg/mL | 1 µg/mL | > 32 µg/mL | > 32 µg/mL | –
4 | N=C(N)SCc1cccc(SC2=C(C(=O)O)N3C(=O)[C@@H](NC(=O)Cc4ccccc4)[C@H]3SC2)c1 [Cmpd 80, (7R)-7-[(Phenylacetyl)amino]-3-(3-isothiouroniummethylphenylthio)-3-cephem-4-carboxylate, inner salt] | < 0.06 µg/mL | 8 µg/mL | < 0.06 µg/mL | 8 µg/mL | 2 µg/mL | 1 µg/mL | 16 µg/mL | > 32 µg/mL | –
5 | Nc1nc(/C(=N/OC2CCCC2)C(=O)N[C@@H]2C(=O)N3C(C(=O)O)=C(Sc4cccnc4-c4ccccc4)CS[C@H]23)cs1 [Cmpd 86, (7R)-7-[(Z)-2-(aminothiazol-4-yl)-2-(cyclopentyloxyimino)acetamido]-3-(2-phenylpyridin-3-ylthio)-3-cephem-4-carboxylic acid] | 1 µg/mL (≈ 1.61 µM) | 16 µg/mL (≈ 25.7 µM) | 1 µg/mL (≈ 1.61 µM) | 16 µg/mL (≈ 25.7 µM) | 2 µg/mL (≈ 3.21 µM) | 4 µg/mL (≈ 6.42 µM) | 2 µg/mL (≈ 3.21 µM) | 32 µg/mL (≈ 51.4 µM) | –
6 | NCc1ccccc1CC(=O)N[C@@H]1C(=O)N2C(C(=O)O)=C(Sc3ccnn3-c3ccccc3)CS[C@H]12 [Cmpd 96, (7R)-7-[((2-aminomethylphenyl)acetyl)amino]-3-(1-N-phenylpyrazol-5-ylthio)-3-cephem-4-carboxylic acid] | 0.25 µg/mL (≈ 0.479 µM) | 16 µg/mL (≈ 30.7 µM) | 0.5 µg/mL (≈ 0.959 µM) | 16 µg/mL (≈ 30.7 µM) | 4 µg/mL (≈ 7.67 µM) | 1 µg/mL (≈ 1.92 µM) | > 32 µg/mL | > 32 µg/mL | –
7 | Nc1nc(/C(=N/OCCF)C(=O)N[C@@H]2C(=O)N3C(C(=O)O)=C(Sc4ccnn4-c4ccccc4)CS[C@H]23)c(Cl)s1 [Cmpd 98, (7R)-7-[(Z)-2-(2-amino-5-chlorothiazol-4-yl)-2-(2-fluoroethyloxyimino)acetamido]-3-(1-N-phenylpyrazol-5-ylthio)-3-cephem-4-carboxylic acid] | 0.5 µg/mL (≈ 0.801 µM) | 8 µg/mL (≈ 12.8 µM) | – | 8 µg/mL (≈ 12.8 µM) | 4 µg/mL (≈ 6.41 µM) | 1 µg/mL (≈ 1.6 µM) | 8 µg/mL (≈ 12.8 µM) | 16 µg/mL (≈ 25.6 µM) | –
8 | N=C(N)SCc1ccccc1SC1=C(C(=O)O)N2C(=O)[C@@H](NC(=O)Cc3ccc(O)cc3)[C@H]2SC1 [Cmpd 99, (7R)-7-[((4-Hydroxyphenyl)acetyl)amino]-3-(2-isothiouroniummethylphenylthio)-3-cephem-4-carboxylic acid, inner salt] | 0.125 µg/mL | 16 µg/mL | – | 16 µg/mL | 1 µg/mL | 1 µg/mL | > 32 µg/mL | > 32 µg/mL | –
9 | N=C(N)SCCc1ccccc1SC1=C(C(=O)O)N2C(=O)[C@@H](NC(=O)Cc3ccccc3)[C@H]2SC1 [Cmpd 100, (7R)-7-[(Phenylacetyl)amino]-3-(2-(2-isothiouronium)ethylphenylthio)-3-cephem-4-carboxylate, inner salt] | < 0.06 µg/mL | 8 µg/mL | – | 16 µg/mL | 4 µg/mL | 1 µg/mL | > 32 µg/mL | > 32 µg/mL | –
10 | O=C(Cc1ccccc1)N[C@@H]1C(=O)N2C(C(=O)O)=C(Sc3ccnn3-c3ccccn3)CS[C@H]12 [Cmpd 105, (7R)-7-[(Phenylacetyl)amino]-3-(1-N-(pyridin-2-yl)pyrazol-5-ylthio)-3-cephem-4-carboxylic acid] | – | 16 µg/mL (≈ 32.4 µM) | 0.25 µg/mL (≈ 0.507 µM) | 32 µg/mL (≈ 64.8 µM) | 2 µg/mL (≈ 4.05 µM) | 1 µg/mL (≈ 2.03 µM) | > 32 µg/mL | > 32 µg/mL | 0.25 µg/mL (≈ 0.507 µM)
11 | O=C(COc1ccccc1)N[C@@H]1C(=O)N2C(C(=O)O)=C(Sc3ccnn3-c3ccccc3)CS[C@H]12 [Cmpd 112, (7R)-7-[(phenyloxyacetyl)amino]-3-(1-N-phenylpyrazol-5-ylthio) -3-cephem-4-carboxylic acid] | – | 16 µg/mL (≈ 31.5 µM) | – | 32 µg/mL (≈ 62.9 µM) | 4 µg/mL (≈ 7.87 µM) | 4 µg/mL (≈ 7.87 µM) | > 32 µg/mL | > 32 µg/mL | –
12 | CSCC(=O)N[C@@H]1C(=O)N2C(C(=O)O)=C(Sc3ccccc3CSC(=N)NC(=N)N)CS[C@H]12 [Cmpd 126, (7R)-7-[(methylthioacetyl)amino]-3-(2-(N-amidino)isothiouroniummethylphenylthio)-3-cephem-4-carboxylate, inner salt] | – | 16 µg/mL | 0.125 µg/mL | – | 2 µg/mL | 1 µg/mL | > 32 µg/mL | > 32 µg/mL | 0.125 µg/mL
13 | N=C(N)NCc1ccccc1SC1=C(C(=O)O)N2C(=O)[C@@H](NC(=O)Cc3ccccc3)[C@H]2SC1 [Cmpd 128, (7R)-7-[(Phenylacetyl)amino]-3-(2-guanidiniummethylphenylthio)-3-cephem-4-carboxylate, inner salt] | ≤ 0.06 µg/mL | 16 µg/mL | ≤ 0.06 µg/mL | – | 2 µg/mL | 2 µg/mL | > 32 µg/mL | > 32 µg/mL | –
14 | N=C(N)SCc1ccccc1SC1=C(C(=O)O)N2C(=O)[C@@H](NC(=O)/C(=N\O)c3csc(N)n3)[C@H]2SC1 [Cmpd 129, (7R)-7-[(Z)-2-(Aminothiazol-4-yl)-2-(hydroxyimino)acetamido]-3-(2-isothiouroniummethylphenylthio)-3-cephem-4-carboxylate, inner salt] | ≤ 0.06 µg/mL | 8 µg/mL | ≤ 0.06 µg/mL | 16 µg/mL | – | 0.25 µg/mL | 2 µg/mL | > 32 µg/mL | –
15 | N=C(N)SCc1ccccc1SC1=C(C(=O)O)N2C(=O)[C@@H](NC(=O)/C(=N\O)c3ccccc3)[C@H]2SC1 [Cmpd 136, (7R)-7-[(Z)-2-(Phenyl)-2-(hydroxyimino)acetamido]-3-(2-isothiouroniummethylphenylthio)-3-cephem-4-carboxylate, inner salt] | 0.125 µg/mL | 4 µg/mL | – | 4 µg/mL | 1 µg/mL | 0.5 µg/mL | > 32 µg/mL | > 32 µg/mL | –
